From US9102648B1, “Bioavailable diacylhydrazine ligands for modulating the expression of exogenous genes via an ecdysone receptor complex” (Intrexon Corporation, priority 2003, dated 2015)
pEC50: −log10 of the molar value. Read-outs that look alike come from different tables or passages of the source.

Columns and labels:
[1] = target: T1, Bombyx mori EcR (VP16 fusion, CVBE switch construct) (Bombyx mori, UniProt P49881); experiment: Z3 Assay (HEK-293 cells with CVBE and 6XEcRE LacZ, β-galactosidase reporter); conditions: for Fold Induction, Z3 Assay, 33 uM: 33 uM ligand; for Fold Induction, Z3 Assay, 33 uM / Fold Induction, Z3 Assay, 3.3 uM: ligand treated / DMSO treated cells; for Fold Induction, Z3 Assay, 3.3 uM: 3.3 uM ligand; for Z3 assay Rel Max FI: maximum fold induction at any concentration relative to that of GS-E ligand; for fold induction at 3.3 µM: HEK293, read-out: Fold Induction, Z3 Assay, 3.3 uM; for fold induction at 33 µM: HEK293, read-out: Fold Induction, Z3 Assay, 33 uM
T1 sequence (P49881 86-606): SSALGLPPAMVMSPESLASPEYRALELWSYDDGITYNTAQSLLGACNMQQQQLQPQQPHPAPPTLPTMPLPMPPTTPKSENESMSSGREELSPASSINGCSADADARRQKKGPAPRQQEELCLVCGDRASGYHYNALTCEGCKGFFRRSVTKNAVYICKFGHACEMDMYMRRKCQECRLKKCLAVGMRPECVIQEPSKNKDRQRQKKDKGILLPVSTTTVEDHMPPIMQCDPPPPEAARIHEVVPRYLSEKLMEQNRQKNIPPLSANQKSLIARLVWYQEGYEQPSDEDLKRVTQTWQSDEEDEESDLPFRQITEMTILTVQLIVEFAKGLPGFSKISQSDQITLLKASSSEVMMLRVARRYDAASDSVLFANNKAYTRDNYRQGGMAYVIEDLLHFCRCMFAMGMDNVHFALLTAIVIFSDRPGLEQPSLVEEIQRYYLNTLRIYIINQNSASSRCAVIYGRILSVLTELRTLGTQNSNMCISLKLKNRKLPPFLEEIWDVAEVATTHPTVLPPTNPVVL
T1 sequence (P19793 1-462 partner): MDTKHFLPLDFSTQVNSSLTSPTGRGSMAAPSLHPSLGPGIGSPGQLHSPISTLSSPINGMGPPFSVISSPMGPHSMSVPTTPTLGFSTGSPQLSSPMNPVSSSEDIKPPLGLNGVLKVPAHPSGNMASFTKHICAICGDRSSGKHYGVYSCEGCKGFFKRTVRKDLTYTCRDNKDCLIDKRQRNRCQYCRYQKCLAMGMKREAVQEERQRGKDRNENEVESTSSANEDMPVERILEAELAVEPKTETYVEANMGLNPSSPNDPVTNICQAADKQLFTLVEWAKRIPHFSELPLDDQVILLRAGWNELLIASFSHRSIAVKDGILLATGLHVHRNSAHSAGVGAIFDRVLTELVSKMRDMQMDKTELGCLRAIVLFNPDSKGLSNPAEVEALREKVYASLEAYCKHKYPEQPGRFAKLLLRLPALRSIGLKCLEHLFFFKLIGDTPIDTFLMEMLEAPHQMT

[2] = target: GAL4 DBD-CfEcR(DEF)/VP16AD-MmRXRE (Choristoneura fumiferana, UniProt O77240); experiment: 13B3 Assay (CHO stable cell line, luciferase reporter); conditions: for Fold Induction, 13B3 Assay, 33 uM: 33 uM ligand; for Fold Induction, 13B3 Assay, 33 uM / Fold Induction, 13B3 Assay, 3.3 uM: RLU ligand treated / RLU DMSO treated cells; for Fold Induction, 13B3 Assay, 3.3 uM: 3.3 uM ligand; for 13B3 assay Rel Max FI: maximum fold induction at any concentration relative to that of GS-E ligand, CHO 13B3 cells; for fold induction at 3.3 µM: read-out: Fold Induction, 13B3 Assay, 3.3 uM; for fold induction at 33 µM: read-out: Fold Induction, 13B3 Assay, 33 uM
How it was run: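 Ligands dosed at 8 levels from 33 to 0.01 μM (DMSO stocks diluted 300-fold) onto the 13B3 CHO line carrying GAL4-DBD/CfEcR-DEF, VP16/MmRXR-DE and a GAL4-responsive luciferase gene.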

[3] = read-out: Z3 assay EC50, HEK-293 Z3 cells, β-galactosidase reporter, average of two wells
[4] = read-out: 13B3 EC50, CHO 13B3 stable cell line, luciferase reporter, 48 h, average of two wells

Row | SMILES | Fold Induction, Z3 Assay, 33 uM ([1]; average of two wells) | pEC50 [1, 3] | Fold Induction, 13B3 Assay, 33 uM ([2]; average of two wells) | Fold Induction, Z3 Assay, 3.3 uM ([1]; average of two wells) | Z3 assay Rel Max FI ([1]; HEK-293 Z3 cells) | Fold Induction, 13B3 Assay, 3.3 uM ([2]; average of two wells) | 13B3 assay Rel Max FI [2] | pEC50 [2, 4] | pEC50 [1] | fold induction at 3.3 µM [1] | fold induction at 33 µM [1] | pEC50 [2] | fold induction at 3.3 µM [2] | fold induction at 33 µM [2]
1 | CCc1c(C(=O)NN(C(=O)c2ccc(Cl)cc2OC)C(C)(C)C)ccc2c1OCO2 [RG-115085] | 627 | 6.71 | 236 | – | – | – | – | – | – | – | – | – | – | –
2 | CCc1c(OC)cccc1C(=O)NN(C(=O)c1c(F)cccc1F)C(C)(C)C [RG-115033] | 388 | 4.79 | 12 | 24 | 0.575 | 386 | 0.643 | 6.00 | – | – | – | – | – | –
3 | COc1cccc(C(=O)NN(C(=O)c2cccc(C)c2)C(C)(C)C)c1C [RG-100694] | 1288 | 6.41 | 2078 | 1294 | 1.157 | 3385 | 0.632 | 6.39 | – | – | – | – | – | –
4 | COc1ccc(C)cc1C(=O)N(NC(=O)c1cccc(OC)c1C)C(C)(C)C [RG-100766] | 474 | 6.76 | 391 | 921 | 1.194 | – | – | – | – | – | – | – | – | –
5 | COc1cc(C(=O)N(NC(=O)c2ccc3c(c2C)OCCO3)C(C)(C)C#N)cc(OC)c1C [RG-115092, N-(5-methyl-1,4-benzodioxan-6-carbonyl)-N′-(2-cyano-2-propyl)-N′-(3,5-dimethoxy-4-methylbenzoyl)hydrazine] | – | – | – | – | 0.917 | – | 1.176 | – | 7.43 | 351 | 302 | 6.74 | 2320 | 2410
6 | Cc1c(C(=O)NN(C(=O)c2cccc(F)c2)C(C)(C)C)ccc2c1CCCO2 [RG-115278] | 1225 | 6.59 | 1050 | 158 | 0.893 | 1950 | 0.823 | 6.20 | – | – | – | – | – | –
7 | COc1cc(C(=O)N(NC(=O)c2ccc3c(c2C)CCCO3)C(C)(C)C)cc(OC)c1C [RG-115055] | 617 | 7.37 | 1350 | 573 | 0.936 | 1356 | 0.894 | 6.52 | – | – | – | – | – | –
8 | CCc1c(OC)cccc1C(=O)NN(C(=O)c1cc(C)cc(C)c1)C(C)(C)CO[Si](C)(C)C(C)(C)C [RG-115665, 2-ethyl-3-methoxy-benzoic acid N′-[2-(tert-butyl-dimethyl-silanyloxy)-1,1-dimethyl-ethyl]-N′-(3,5-dimethyl-benzoyl)-hydrazide] | – | – | – | – | 0.09 | – | 0 | – | 4.91 | 6 | 74 | < 4.30 | 1 | –
9 | Cc1cc(C)cc(C(=O)N(NC(=O)c2ccc3c(c2C)OCCO3)C(C)(C)C)c1 [RG-102317, N-(5-methyl-1,4-benzodioxan-6-carbonyl)-N′-(tert-butyl)-N′-(3,5-dimethylbenzoyl)hydrazine] | – | – | – | – | – | – | – | – | – | 416 | 1500 | 6.46 | 2420 | 814
10 | COc1ccc(OC)c(C(=O)N(NC(=O)c2cccc(C)c2C)C(C)(C)C)c1 [RG-100763] | 151 | 5.67 | 2442 | – | – | – | – | – | – | – | – | – | – | –
11 | COc1ccccc1C(=O)N(NC(=O)c1ccc2c(c1C)CCCO2)C(C)(C)C [RG-115102] | 865 | 6.86 | 109 | 88 | 0.858 | 1425 | 0.546 | 6.03 | – | – | – | – | – | –
12 | Cc1c(C(=O)NN(C(=O)c2cc(F)c(F)c(F)c2F)C(C)(C)C)ccc2c1CCCO2 [RG-115518] | 803 | 6.59 | 926 | 232 | 0.834 | 1644 | 0.648 | 5.90 | – | – | – | – | – | –
13 | CCc1c(C(=O)NN(C(=O)c2cc(F)ccc2F)C(C)(C)C)ccc2c1OCCO2 [RG-115508] | 680 | 6.27 | 191 | 199 | 0.787 | 310 | 0.805 | 6.07 | – | – | – | – | – | –
14 | CCc1c(OC)cccc1C(=O)NN(C(=O)c1cc(C)cc(C)c1)C(C)(C)C=NCCO [RG-115511] | 570 | 4.41 | 98 | 10 | 0.66 | 1 | 0.07 | < 4.30 | – | – | – | – | – | –
15 | Cc1c(C(=O)NN(C(=O)c2ccc(F)cc2)C(C)(C)C)ccc2c1OCCO2 [RG-100425] | 592 | 7.00 | 747 | 1128 | 1.180 | – | – | – | – | – | – | – | – | –
16 | Cc1c(C(=O)NN(C(=O)c2cc(F)c(Cl)cc2Cl)C(C)(C)C)ccc2c1CCCO2 [RG-115539] | 339 | 6.82 | 592 | – | – | 20 | 0.955 | 5.30 | – | – | – | – | – | –
17 | CCc1c(OC)cccc1C(=O)NN(C(=O)c1cc(C)cc(C)c1)C(C)(C)C=O [RG-115407, 2-ethyl-3-methoxy-benzoic acid N′-(3,5-dimethyl-benzoyl)-N′-(1,1-dimethyl-2-oxo-ethyl)-hydrazide] | – | – | – | – | 0.906 | – | 1.048 | – | 6.46 | 391 | 879 | 5.15 | 2480 | 2610
18 | CCc1c(OC)cccc1C(=O)NN(C(=O)c1cc(C)cc(C)c1)C(C)(C)C=NNC(=O)C(N)=O [RG-115597, oxamic carbazide of 2-ethyl-3-methoxy-benzoic acid N′-(3,5-dimethyl-benzoyl)-N′-(1,1-dimethyl-2-oxo-ethyl)-hydrazide] | 942 | – | 4667 | – | – | – | – | – | – | – | – | – | – | –
19 | CCc1c(OC)cccc1C(=O)NN(C(=O)c1cc(C)cc(C)c1)C(C)(C)C=NNC(N)=O [RG-115653, semicarbazide of 2-ethyl-3-methoxy-benzoic acid N′-(3,5-dimethyl-benzoyl)-N′-(1,1-dimethyl-2-oxo-ethyl)-hydrazide] | 666 | – | – | – | – | 6 | – | – | – | – | – | – | – | –
20 | CCC(N(NC(=O)c1cccc(C)c1C)C(=O)c1cc(C)cc(C)c1)C(C)(C)C (stereo not drawn) [RG-103309, 3,5-dimethyl-benzoic acid N′-(2,3-dimethyl-benzoyl)-N-(1-ethyl-2,2-dimethyl-propyl)-hydrazide] | – | – | – | – | 0.950 | – | 1.486 | – | 7.11 | 1160 | 591 | 6.84 | 924 | 95
